Our source for the Activity, IC50 and Papp values is ChEMBL document CHEMBL1145293, “Synthesis and SAR of GlyT1 inhibitors derived from a series of N-((4-(morpholine-4-carbonyl)-1-(propylsulfonyl)piperidin-4-yl)methyl)benzamides” (Bioorg Med Chem Lett, 2006).

The target of one data set is Cytochrome P450 3A4 (Homo sapiens, UniProt P08684). The data set is described as follows: Inhibition of CYP3A4. The data set is classed as ADME.
The target in data set [1] is T1, Sodium- and chloride-dependent glycine transporter 1 (Rattus norvegicus, UniProt P28572).
T1 sequence (P28572 whole entry): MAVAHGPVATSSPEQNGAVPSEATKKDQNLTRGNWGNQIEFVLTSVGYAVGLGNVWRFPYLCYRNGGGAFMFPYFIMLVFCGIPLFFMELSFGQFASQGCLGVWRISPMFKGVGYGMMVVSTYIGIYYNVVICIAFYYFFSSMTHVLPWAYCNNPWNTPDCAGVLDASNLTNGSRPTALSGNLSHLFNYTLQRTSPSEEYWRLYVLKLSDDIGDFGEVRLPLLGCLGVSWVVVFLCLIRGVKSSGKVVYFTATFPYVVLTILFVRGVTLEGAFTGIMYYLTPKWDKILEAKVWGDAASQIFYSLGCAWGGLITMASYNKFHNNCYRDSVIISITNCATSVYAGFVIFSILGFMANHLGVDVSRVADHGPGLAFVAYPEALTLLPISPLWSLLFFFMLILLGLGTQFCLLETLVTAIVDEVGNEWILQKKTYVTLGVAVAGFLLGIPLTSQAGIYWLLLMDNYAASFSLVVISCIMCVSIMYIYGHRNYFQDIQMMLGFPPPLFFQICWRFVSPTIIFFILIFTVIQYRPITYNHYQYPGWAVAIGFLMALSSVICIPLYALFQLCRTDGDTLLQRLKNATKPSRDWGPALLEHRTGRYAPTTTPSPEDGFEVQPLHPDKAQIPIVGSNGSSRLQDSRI
The data set is described as follows: Inhibition of rat GlyT1.

Data set [2] deals with T2, Sodium- and chloride-dependent glycine transporter 1 (Mus musculus, UniProt P28571).
T2 sequence (P28571 whole entry): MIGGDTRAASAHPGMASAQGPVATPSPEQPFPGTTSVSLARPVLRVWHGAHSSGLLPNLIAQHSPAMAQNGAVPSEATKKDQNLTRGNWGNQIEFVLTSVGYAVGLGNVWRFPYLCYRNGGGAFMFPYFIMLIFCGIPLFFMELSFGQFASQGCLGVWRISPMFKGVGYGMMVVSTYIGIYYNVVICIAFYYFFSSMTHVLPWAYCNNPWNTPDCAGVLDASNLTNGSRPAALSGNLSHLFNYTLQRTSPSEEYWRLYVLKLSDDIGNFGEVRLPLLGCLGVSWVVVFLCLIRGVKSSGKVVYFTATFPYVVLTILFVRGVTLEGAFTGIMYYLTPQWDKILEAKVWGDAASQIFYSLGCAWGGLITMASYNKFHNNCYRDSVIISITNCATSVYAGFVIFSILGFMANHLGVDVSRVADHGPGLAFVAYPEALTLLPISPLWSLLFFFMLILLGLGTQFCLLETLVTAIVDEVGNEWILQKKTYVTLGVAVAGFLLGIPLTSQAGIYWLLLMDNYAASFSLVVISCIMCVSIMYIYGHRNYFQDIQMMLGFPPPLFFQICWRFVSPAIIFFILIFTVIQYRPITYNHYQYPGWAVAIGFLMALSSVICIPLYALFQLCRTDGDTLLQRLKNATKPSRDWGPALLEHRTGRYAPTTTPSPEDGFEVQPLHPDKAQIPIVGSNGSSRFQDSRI
The data set is described as follows: Inhibition of mouse GlyT1.

The nature of data set [3]: Apparent permeability in Caco-2 cells. The data set is classed as ADME, cell-based. The settings on record: human.

Sequence of Cytochrome P450 3A4 (P08684 whole entry): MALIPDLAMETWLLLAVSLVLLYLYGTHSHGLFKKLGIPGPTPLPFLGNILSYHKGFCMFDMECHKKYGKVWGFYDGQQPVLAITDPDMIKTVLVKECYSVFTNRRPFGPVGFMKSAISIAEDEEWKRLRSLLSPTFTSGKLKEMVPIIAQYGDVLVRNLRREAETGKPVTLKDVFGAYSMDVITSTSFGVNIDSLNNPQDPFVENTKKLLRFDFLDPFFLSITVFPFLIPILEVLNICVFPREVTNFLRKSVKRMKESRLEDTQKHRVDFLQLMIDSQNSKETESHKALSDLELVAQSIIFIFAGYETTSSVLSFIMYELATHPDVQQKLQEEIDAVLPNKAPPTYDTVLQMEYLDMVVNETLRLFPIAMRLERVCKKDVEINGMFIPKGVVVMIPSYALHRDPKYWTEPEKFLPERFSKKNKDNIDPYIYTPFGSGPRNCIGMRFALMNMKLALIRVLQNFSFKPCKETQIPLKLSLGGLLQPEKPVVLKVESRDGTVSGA

Turning to `CCCS(=O)(=O)N1CCC(CNC(=O)c2ccccc2Cl)(C(=O)N2CCOCC2)CC1`, the Activity entry at Cytochrome P450 3A4 was “Not Active”. In addition, the IC50 in data set [1] stood at 18.3 nM; in data set [2] it was 95.3 nM. The Papp in data set [3] is more than 22 ×10⁻⁶ cm/s.

For the compound `CCCS(=O)(=O)N1CCC(CNC(=O)c2c(F)ccc(Cl)c2F)(C(=O)N2CCOCC2)CC1`, the Activity entry at Cytochrome P450 3A4 was “Not Active”. In addition, the IC50 is 19.7 nM in data set [1] and 42.8 nM in data set [2]. The Papp in data set [3] is more than 22 ×10⁻⁶ cm/s.

With `CCCS(=O)(=O)N1CCC(CNC(=O)c2ccc(F)cc2Cl)(C(=O)N2CCOCC2)CC1`, at Cytochrome P450 3A4, the Activity entry is “Not Active”. The values for the half-inhibitory concentration (IC50) in data set [1] and in data set [2] were 10.1 nM and 28.5 nM, respectively. Moreover, the apparent permeability coefficient (Papp) in data set [3] is more than 22 ×10⁻⁶ cm/s.

For `CCCS(=O)(=O)N1CCC(CNC(=O)c2cc(F)c(Cl)cc2Cl)(C(=O)N2CCOCC2)CC1`, at Cytochrome P450 3A4, the Activity result is listed as “Not Active”. In addition, the IC50 in data set [1] was 7.4 nM; in data set [2], 19.4 nM. In data set [3], the Papp was more than 22 ×10⁻⁶ cm/s.

Take `CCCS(=O)(=O)N1CCC(CNC(=O)c2c(F)cccc2Cl)(C(=O)N2CCOCC2)CC1`: the Activity result at Cytochrome P450 3A4 was “Not Active”. Besides, the IC50 in data set [1] was 22.1 nM; in data set [2] it was 57.3 nM. In addition, the Papp in data set [3] is more than 22 ×10⁻⁶ cm/s.

Turning to `CCCS(=O)(=O)N1CCC(CNC(=O)c2ccc(Cl)cc2Cl)(C(=O)N2CCOCC2)CC1`, the Activity result on Cytochrome P450 3A4 is listed as “Not Active”. Further, the IC50 worked out at 3.2 nM in data set [1] and 7.6 nM in data set [2]. Also, the Papp in data set [3] stood at 23.6 ×10⁻⁶ cm/s.
